Holding throughout (assay): biochemical
The target in one experiment is DRB5*0101 (Homo sapiens, UniProt P01903+Q30154).
Another experiment addresses DRB1*1302 (Homo sapiens, UniProt P01903+P01911, A100E/A169T/K41T/L162R/M171V/P40S/Q125H/Q178H/Q39Y/Q99D/R42S/S66N/T262R/V115G/W38E/Y61H). The experiment is classed as binding.
The target in another experiment is DRB1*0405 (Homo sapiens, UniProt P01903+P01911, A100R/A169T/D86S/F76Y/I96L/K127E/L162R/M171V/N62H/P40V/Q125Y/R42H/S133A/S149N/S66Y/V115G/V209L/W38E). The experiment is classed as binding.
The next experiment concerns the target DR7 (DRB1*0701) (Homo sapiens, UniProt P01903+P01911, A100R/A102G/A103Q/D57E/D86V/E43K/F76Y/K127E/L162R/M171V/P40G/Q125H/Q99D/R33Q/R42Y/R54Q/S133A/S66F/T210M/V115G/Y107V/Y59L/Y89S). The experiment is classed as binding.
A further experiment addresses DR1 (DRB1*0101) (Homo sapiens, UniProt P01903+P01911, A100R/D57E/F55L/F60I/F76Y/I96L/L162R/M171V/P40L/Q125E/R42F/V115G/Y59C). The experiment is classed as binding.
Another experiment has as its target DRB1*0901 (Homo sapiens, UniProt P01903+P01911, A100R/A103E/D57H/D86V/F55Y/F60I/F76Y/I96F/K127E/L162R/M171V/P40D/Q125H/Q99R/R33Q/R42F/S133A/S66N/T210M/V115G/W38K/Y107V/Y59G/Y89S). The experiment is classed as binding.
The target in another experiment is DRB1*1501 (Homo sapiens, UniProt P01903+P01911). It is filed as binding.
The target in the next experiment is DRB1*1101 (Homo sapiens, UniProt P01903+P01911, A100R/A169T/A87E/I96F/K41T/L162R/M171V/P40S/Q125H/Q178H/Q39Y/Q99D/R42S/S66Y/T262R/V115G/W38E).
The target in the next experiment is DRB4*0101 (Homo sapiens, UniProt P01903+P13762, G164S). The experiment is classed as binding.
In a further experiment the target is DRB1*0802 (Homo sapiens, UniProt P01903+P01911, A100R/A103L/A169T/F76Y/H45Y/I96F/K41T/L162R/M171V/P40S/Q125H/Q178H/Q39Y/Q99D/R218S/R42G/S66Y/V115G/W38E). The experiment is classed as binding.
For a further experiment, the target named is DR4w4 (DRB1*0401) (Homo sapiens, UniProt P01903+P01911, A100K/A169T/F76Y/I96L/K127E/L162R/M171V/N62H/P40V/Q125Y/R42H/S133A/S149N/S66Y/V115G/V209L/W38E). The experiment is classed as binding.

Where two headings read alike, the source gives them in different places. No end group written: not given here. Where only a bound is given, the exact number is not on record here.

DRB1*1302, sequence (P01903 26-254 limits assumed, other chains not shown): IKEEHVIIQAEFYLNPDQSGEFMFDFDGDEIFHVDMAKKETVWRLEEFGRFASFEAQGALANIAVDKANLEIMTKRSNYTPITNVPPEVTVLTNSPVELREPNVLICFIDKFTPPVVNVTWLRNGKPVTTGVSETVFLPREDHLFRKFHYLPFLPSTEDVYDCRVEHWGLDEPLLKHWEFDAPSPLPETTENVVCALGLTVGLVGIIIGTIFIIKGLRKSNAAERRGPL
DRB1*1101, sequence (P01903 26-254 limits assumed, other chains not shown): as above

Consider LIKFFQGSVISFVNS [Peptide 89.0135], for which the half-inhibitory concentration (IC50) (usually the concentration at which inhibition is half-maximal) is more than 20 µM at DRB5*0101; 71 nM against DRB1*1302; more than 20 µM against DRB1*0405; more than 20 µM at DR7 (DRB1*0701); more than 20 µM against DR1 (DRB1*0101); more than 20 µM against DRB1*0901. Also, the IC50 at DRB1*1501 was more than 20 µM; on DRB1*1101, more than 20 µM; on DRB4*0101, 3730 nM; against DRB1*0802, 7.98 µM; on DR4w4 (DRB1*0401), more than 20000 nM.

Take RQHLANHPAATHTKA [Peptide 89.0155]: the IC50 was more than 20 µM at DRB5*0101 (Binding affinity DRB5 *0101); 878 nM against DRB1*1302; more than 20 µM on DRB1*0405; more than 20 µM against DR7 (DRB1*0701); more than 20 µM on DR1 (DRB1*0101); more than 20 µM against DRB1*0901. The IC50 was 8.66 µM at DRB1*1501; 16 µM on DRB1*1101 (Binding affinity DRB1 *1101); more than 20000 nM on DRB4*0101; more than 20 µM on DRB1*0802; more than 20000 nM against DR4w4 (DRB1*0401).

On to CSAIEVQIALESLST [Peptide 90.0018], for which the IC50 at DRB5*0101 (Binding affinity DRB5 *0101) is more than 20 µM; against DRB1*1302, 617 nM; against DRB1*0405, 3.32 µM; against DR7 (DRB1*0701) it was 5.26 µM; against DRB1*0901, 12 µM; on DRB1*1501, more than 20 µM. Also, the IC50 is more than 20 µM at DRB1*1101 (Binding affinity DRB1 *1101), 29 nM on DRB4*0101, more than 20 µM against DRB1*0802 and 240 nM on DR4w4 (DRB1*0401).

LKVLIKQHSIYTHLQ [Peptide 89.0142]: the IC50 is more than 20 µM at DRB5*0101 (Binding affinity DRB5 *0101); 448 nM against DRB1*1302; more than 20 µM against DRB1*0405; more than 20 µM on DR7 (DRB1*0701); more than 20 µM at DRB1*0901; more than 20 µM against DRB1*1501. The IC50 was more than 20 µM at DRB1*1101 (Binding affinity DRB1 *1101), more than 20000 nM at DRB4*0101, more than 20 µM at DRB1*0802 and more than 20000 nM on DR4w4 (DRB1*0401).

Turning to `CC[C@H](C)[C@H](NC(=O)[C@H](C)NC(=O)[C@H](CCCCN)NC(=O)[C@H](Cc1c[nH]cn1)NC(=O)[C@H](C)NC(=O)[C@H](CCCCN)NC(=O)[C@H](CO)NC(=O)[C@H](CCCCN)NC(=O)[C@H](CO)NC(=O)[C@@H](NC(=O)[C@H](CC(N)=O)NC(=O)[C@H](Cc1ccc(O)cc1)NC(=O)[C@H](C)N)[C@@H](C)CC)C(=O)N[C@@H](CCC(=O)O)C(=O)N[C@@H](CC(C)C)C(=O)O` [Peptide 89.0159], the IC50 at DRB5*0101 (Binding affinity DRB5 *0101) is more than 20 µM; on DRB1*1302 it was more than 20000 nM; on DRB1*0405 it was more than 20 µM; at DR7 (DRB1*0701), more than 20 µM; against DR1 (DRB1*0101) it was 0.651 µM; at DRB1*0901, more than 20 µM. Also, the IC50 is more than 20 µM against DRB1*1501; more than 20 µM at DRB1*1101 (Binding affinity DRB1 *1101); more than 20000 nM on DRB4*0101; more than 20 µM at DRB1*0802; more than 20000 nM against DR4w4 (DRB1*0401).

With LSQVKIPKTITVSTG [Peptide 89.0158], the IC50 on DRB5*0101 (Binding affinity DRB5 *0101) is more than 20 µM; on DRB1*1302, more than 20000 nM; on DRB1*0405, more than 20 µM; against DR7 (DRB1*0701), 5.83 µM; against DR1 (DRB1*0101), 4.5 µM; against DRB1*0901 it was 5.48 µM. The half-maximal inhibitory concentration (IC50) on DRB1*1501 was 1.91 µM; on DRB1*1101 (Binding affinity DRB1 *1101) it was 3.63 µM; against DRB4*0101, more than 20000 nM; against DRB1*0802, more than 20 µM; against DR4w4 (DRB1*0401) it was 373 nM.

For the compound QQQMFLGTVKIPPTV [Peptide 89.0187], the IC50 on DRB5*0101 (Binding affinity DRB5 *0101) was more than 20 µM; against DRB1*1302 it was 3340 nM; against DRB1*0405, 6.33 µM; against DR7 (DRB1*0701) it was more than 20 µM; against DR1 (DRB1*0101), 0.743 µM; against DRB1*0901 it was more than 20 µM. Besides, the half-maximal inhibitory concentration (IC50) against DRB1*1501 was 1 µM; at DRB1*1101 (Binding affinity DRB1 *1101), 5.88 µM; on DRB4*0101, 1590 nM; against DRB1*0802 it was 7.29 µM; on DR4w4 (DRB1*0401), 70 nM.

QKCFKKKGITVTVQY [Peptide 90.0026]: the IC50 on DRB5*0101 (Binding affinity DRB5 *0101) is more than 20 µM; against DRB1*1302, 837 nM; at DRB1*0405 it was 2.91 µM; against DR7 (DRB1*0701) it was 4.39 µM; at DRB1*0901, 0.639 µM; against DRB1*1501 it was more than 20 µM. Moreover, the IC50 at DRB1*1101 (Binding affinity DRB1 *1101) worked out at 7.82 µM; against DRB4*0101, 1310 nM; against DRB1*0802, 1.33 µM; against DR4w4 (DRB1*0401), 996 nM.

SQLLNIPETHMVIEP [Peptide 89.0102]: the half-maximal inhibitory concentration (IC50) on DRB5*0101 (Binding affinity DRB5 *0101) is more than 20 µM; against DRB1*1302 it was more than 20000 nM; against DRB1*0405 it was more than 20 µM; on DR7 (DRB1*0701) it was more than 20 µM; against DR1 (DRB1*0101) it was more than 20 µM; on DRB1*0901, more than 20 µM. In addition, the IC50 against DRB1*1501 is more than 20 µM; on DRB1*1101 (Binding affinity DRB1 *1101), more than 20 µM; against DRB4*0101, 807 nM; at DRB1*0802, more than 20 µM; on DR4w4 (DRB1*0401), more than 20000 nM.

For QAELETAQALFHAQE [Peptide 89.0022], the IC50 at DRB5*0101 (Binding affinity DRB5 *0101) was 1.95 µM; against DRB1*1302 it was 2780 nM; at DRB1*0405, 0.592 µM; on DR7 (DRB1*0701) it was 3.01 µM; at DRB1*0901 it was 0.338 µM; against DRB1*1501 it was more than 20 µM. Moreover, the IC50 was more than 20 µM at DRB1*1101 (Binding affinity DRB1 *1101), 72 nM on DRB4*0101, more than 20 µM on DRB1*0802 and 122 nM against DR4w4 (DRB1*0401).

For the compound RKTIAKALSSILNVP [Peptide 89.0123], the half-inhibitory concentration (IC50) at DRB1*1302 is more than 20000 nM; on DRB1*0405 it was more than 20 µM; against DR7 (DRB1*0701), more than 20 µM; against DR1 (DRB1*0101) it was more than 20 µM; against DRB1*0901 it was more than 20 µM; against DRB1*1501 it was more than 20 µM. Also, the concentration for half-maximal inhibition (IC50) against DRB1*1101 is more than 20 µM; at DRB4*0101, 746 nM; against DRB1*0802 it was more than 20 µM; at DR4w4 (DRB1*0401), 11500 nM.

In the case of KNCILIHGAPNTGKS [Peptide 89.0055], the IC50 was more than 20 µM on DRB5*0101 (Binding affinity DRB5 *0101); 8910 nM against DRB1*1302; 3.85 µM against DRB1*0405; 7.3 µM against DR7 (DRB1*0701); 17 µM against DRB1*0901; 1.4 µM against DRB1*1501. In addition, the IC50 at DRB1*1101 (Binding affinity DRB1 *1101) is 19.9 µM; on DRB4*0101 it was 577 nM; against DRB1*0802, more than 20 µM; against DR4w4 (DRB1*0401), more than 20000 nM.

As to GQVIVCPTSISSNQI [Peptide 89.0185], the IC50 at DRB5*0101 (Binding affinity DRB5 *0101) is 2.48 µM; on DRB1*1302 it was 1330 nM; against DRB1*0405, 7.59 µM; against DR7 (DRB1*0701), more than 20 µM; at DRB1*0901, more than 20 µM; on DRB1*1501, 3.76 µM. For the same compound, the IC50 at DRB1*1101 (Binding affinity DRB1 *1101) stood at 6.53 µM; against DRB4*0101, 1750 nM; against DRB1*0802 it was 1.63 µM; at DR4w4 (DRB1*0401), 91 nM.

With VKFLRYQQIEFVSFL [Peptide 89.0052], the IC50 was determined as 11.2 µM on DRB5*0101 (Binding affinity DRB5 *0101); 24 nM at DRB1*1302; 2.77 µM at DRB1*0405; 4.59 µM at DR7 (DRB1*0701); 3.21 µM on DRB1*0901; 0.535 µM against DRB1*1501. In addition, the IC50 turned out to be 1.1 µM on DRB1*1101 (Binding affinity DRB1 *1101), 2 nM on DRB4*0101, 7.05 µM against DRB1*0802 and 1280 nM against DR4w4 (DRB1*0401).

For the compound DSEIAYKYAQLADSD [Peptide 89.0051], the IC50 at DRB5*0101 (Binding affinity DRB5 *0101) was more than 20 µM; against DRB1*1302, more than 20000 nM; against DRB1*0405, 12.2 µM; against DR7 (DRB1*0701), more than 20 µM; at DRB1*0901, 5.32 µM; at DRB1*1501, 1.09 µM. For the same compound, the half-maximal inhibitory concentration (IC50) on DRB1*1101 (Binding affinity DRB1 *1101) was 3.38 µM; against DRB4*0101, 1340 nM; on DRB1*0802, 0.624 µM; on DR4w4 (DRB1*0401), more than 20000 nM.

For the origin of these results see US9340577B2, “HLA binding motifs and peptides and their uses” (priority 1992, dated 2016).
